Measurements: patent US5162322A, “Method of treating anxiety with 5-[(4-aryl or heteroaryl-1-piperazinyl]alkyl)-2-oxazolidinones” (A. H. Robbins Company, Incorporated, priority 1991, dated 1992)
Where a name gives a salt, the structure may show the parent alone. Read-outs that look alike come from different tables or passages of the source.

Tests used:
5HT1A receptors = target: T1, 5HT1A receptors (Canis lupus familiaris, UniProt Q6XXX9); test: biochemical; assay type: binding, dog
T1 sequence (Q6XXX9 1-423): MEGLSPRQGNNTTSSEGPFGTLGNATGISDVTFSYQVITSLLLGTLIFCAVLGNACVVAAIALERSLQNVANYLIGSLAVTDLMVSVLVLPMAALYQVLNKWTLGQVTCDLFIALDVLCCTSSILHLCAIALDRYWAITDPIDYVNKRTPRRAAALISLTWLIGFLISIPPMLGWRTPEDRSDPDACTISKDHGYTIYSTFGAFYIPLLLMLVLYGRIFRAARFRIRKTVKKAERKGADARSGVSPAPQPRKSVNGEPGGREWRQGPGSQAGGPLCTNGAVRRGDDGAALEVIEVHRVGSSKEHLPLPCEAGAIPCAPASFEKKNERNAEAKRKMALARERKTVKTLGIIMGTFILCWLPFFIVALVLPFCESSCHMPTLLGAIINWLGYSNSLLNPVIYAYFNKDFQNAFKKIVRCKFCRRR
Procedure: (§1) Anxiolytic properties were determined using an in vitro assay in which competive binding with the 5-HT1A specific agonist, [^3 H]8-hydroxy-2-(di-n-propylamino)tetralin(8-OH-DPAT) to 5HT1A receptors in the dog hippocampus membrane preparation is measured [Hall et al, J. Neurochem. […] Several compounds were also tested in mice is the exploratory light/dark method as described by Young and Johnson, Soc. […] 1988, 14, 207 in which the exploratory behavior of a mouse is a two-compartment light-dark activity box is monitored electrically and behavioral variables such as time spent in the lit versus dark compartments, rearings in either of the two compartments, number of transitions between the two compartments and other exploratory behavioral variables are recorded.

mice = test: exploratory light/dark method in mice (two-compartment light-dark activity box); assay type: in vivo; details: for minimal effective dose: Mus musculus, read-out: Light/Dark: minimum effective dose; for Light/Dark: % time spent in lit area: at minimum effective dose
Procedure: as §1

[1] = competitive binding vs [^3 H]8-OH-DPAT, dog hippocampus membrane, buspirone value is an average, read-out: 5HT1A IC50

Structure (SMILES)	IC50 (5HT1A receptors; [1])	further results
CN1CC(CCCCN2CCN(c3ccccc3O)CC2)OC1=O (stereo not drawn) [Example 11, 5-[4-[4-(2-Hydroxyphenyl)-1-piperazinyl]butyl]-3-methyl-2-oxazolidinone]	40 nM	
O=C1OC(CCCCN2CCN(c3ncccn3)CC2)CN1c1ccccc1 (stereo not drawn) [Example 15, 3-Phenyl-5-[4-[4-(2-pyrimidinyl)-1-piperazinyl]butyl]-2-oxazolidinone]	29 nM	
CN1CC(CCCN2CCN(c3ccccn3)CC2)OC1=O (stereo not drawn) [Example 6, 3-Methyl-5-[3-[4-(2-pyridinyl)-1-piperazinyl]propyl]-2-oxazolidinone hydrochloride hydrate (2:4:1)]	110 nM	
O=C1OC(CCCN2CCN(c3ccccn3)CC2)CN1c1ccccc1 (stereo not drawn) [Example 19, 3-Phenyl-5-[3-[4-(2-pyridinyl)-1-piperazinyl]propyl]-2-oxazolidinone]	57 nM	
CCOc1ccccc1N1CCN(CCCC2CN(C)C(=O)O2)CC1 (stereo not drawn) [Example 8, 5-[3-[4-(2-Ethoxyphenyl)-1-piperazinyl]propyl]-3-methyl-2-oxazolidinone]	22 nM	
O=C1OC(CCCN2CCN(c3ccccc3)CC2)CN1c1ccccc1 (stereo not drawn) [Example 22]	50 nM	
CN1CC(CCCCN2CCN(c3ccccn3)CC2)OC1=O (stereo not drawn) [Example 2, 3-Methyl-5-[4-[4-(2-pyridinyl)-1-piperazinyl]butyl]-2-oxazolidinone]	61 nM	minimal effective dose (mice; mice, IP): 3.16 mg/kg; Light/Dark: % time spent in lit area (mice; mice, IP): 53%
CN1CC(CCCN2CCN(c3ncccn3)CC2)OC1=O (stereo not drawn) [Example 7, 3-Methyl-5-[3-[4-(2-pyrimidinyl)-1-piperazinyl]propyl]-2-oxazolidinone]	510 nM	
COc1ccccc1N1CCN(CCCC2CN(C)C(=O)O2)CC1 (stereo not drawn) [Example 5, 5-[3-[4-(2-Methoxyphenyl)-1-piperazinyl]propyl]-3-methyl-2-oxazolidinone hydrochloride hydrate (2:2:3)]	29 nM	
CN1CC(CCCCN2CCN(c3ncccn3)CC2)OC1=O (stereo not drawn) [Example 4, 3-Methyl-5-[4-[4-(2-pyrimidinyl)-1-piperazinyl]butyl]-2-oxazolidinone]	190 nM	
C=CCOc1ccccc1N1CCN(CCCCC2CN(C)C(=O)O2)CC1 (stereo not drawn) [Example 12, 8-methyl-5-[4-[4-[2(2-propenyloxy)phenyl]-1-piperazinyl]butyl]-2-oxazolidinone hydrochloride hydrate (2:4:1)]	20 nM	minimal effective dose (mice; mice, IP): 1 mg/kg; Light/Dark: % time spent in lit area (mice; mice, IP): 66%
CN1CC(CCCCN2CCN(c3ccccc3)CC2)OC1=O (stereo not drawn) [Example 1, 3-Methyl-5-[4-(4-phenyl-1-piperazinyl)butyl]-2-oxazolidinone]	59 nM	minimal effective dose (mice; mice, IP): 10 mg/kg; Light/Dark: % time spent in lit area (mice; mice, IP): 56%
O=C1CC2(CCCC2)CC(=O)N1CCCCN1CCN(c2ncccn2)CC1 [Buspirone, buspirone, reference compound]		IC50 (5HT1A receptors): 13.2 nM; minimal effective dose (mice; ip): 5.62 mg/kg; minimal effective dose (mice; po): 5.62 mg/kg; Light/Dark: % time spent in lit area (mice; mice, IP): 51%; Light/Dark: % time spent in lit area (mice; mice, PO): 54%
CCOc1ccccc1N1CCN(CCCC2CN(c3ccccc3)C(=O)O2)CC1 (stereo not drawn) [Example 21, 5-[3-[4-(2-Ethoxyphenyl)-1-piperazinyl]propyl]-3-phenyl-2-oxazolidinone hydrochloride hydrate (2:4:1)]	18 nM	
O=C1OC(CCCN2CCN(c3ncccn3)CC2)CN1c1ccccc1 (stereo not drawn) [Example 20, 3-Phenyl-5-[3-[4-(2-pyrimidinyl)-1-piperazinyl]propyl]2-oxazolidinone]	170 nM	
CN1CC(CCCN2CCN(c3ccccc3O)CC2)OC1=O (stereo not drawn) [Example 10, 5-[3-[4-(2-hydroxyphenyl)-1-piperazinyl]propyl]-3-methyl-2-oxazolidinone]	110 nM	

Further compounds by falling IC50 (5HT1A receptors; [1]), results first:

IC50 (5HT1A receptors; [1])	Structure (SMILES)	further results
16 nM	CCOc1ccccc1N1CCN(CCCCC2CN(C)C(=O)O2)CC1 (stereo not drawn) [Example 9, 5-[4-[4-(2-Ethoxyphenyl)-1-piperazinyl]butyl]-3-methyl-2-oxazolidinone dihydrochloride]	
15 nM	O=C1OC(CCCCN2CCN(c3ccccc3O)CC2)CN1c1ccccc1 (stereo not drawn) [Example 17, 5-[4-[4-(2-hydroxyphenyl)-1-piperazinyl]butyl]-3-phenyl-2-oxazolidinone]	
15 nM	COc1ccccc1N1CCN(CCCCC2CN(C)C(=O)O2)CC1.Cl.Cl (stereo not drawn) [Example 3, 5-[4-[4-(2-Methoxyphenyl)-1-piperazinyl]butyl]-3-methyl-2-oxazolidinone dihydrochloride]	minimal effective dose (mice; mice, IP): 3.16 mg/kg; Light/Dark: % time spent in lit area (mice; mice, IP): 53%
11 nM	COc1ccccc1N1CCN(CCCC2CN(c3ccccc3)C(=O)O2)CC1 (stereo not drawn) [Example 23, 5-[3-[4-(2-Methoxyphenyl)-1-piperazinyl]propyl]-3-phenyl-2-oxazolidinone hydrochloride hydrate (1:2)]	
8.2 nM	O=C1OC(CCCCN2CCN(c3ccccc3)CC2)CN1c1ccccc1 (stereo not drawn) [Example 16, 3-Phenyl-5-[4-(4-phenyl-1-piperazinyl)butyl]-2-oxazolidinone]	
7.7 nM	O=C1OC(CCCCN2CCN(c3ccccn3)CC2)CN1c1ccccc1 (stereo not drawn) [Example 14, 3-Phenyl-5-[4-[4-(2-pyridinyl)-1-piperazinyl]butyl]-2-oxazolidinone]	
2.2 nM	COc1ccccc1N1CCN(CCCCC2CN(c3ccccc3)C(=O)O2)CC1 (stereo not drawn) [Example 13, 5-[4-[4-(2-Methoxyphenyl)-1-piperazinyl]butyl]-3-phenyl-2-oxazolidinone hydrochloride hydrate (2:2:1)]	
2 nM	CCOc1ccccc1N1CCN(CCCCC2CN(c3ccccc3)C(=O)O2)CC1 (stereo not drawn) [Example 18, 5-[4-[4-(2-Ethoxyphenyl)-1-piperazinyl]butyl]-3-phenyl-2-oxazolidinone hydrochloride hydrate (2:4:1)]	
